Test results: PMC4156305, “Structure Driven Design of Novel Human Ether-A-Go-Go-Related-Gene Channel (hERG1) Activators” (PLoS ONE, 2014)
“Also recorded” adds a separate entry of the source.

Assays:
[1] = biological target: T1, hERG1 (Homo sapiens, UniProt Q12809); assay: Whole cell patch-clamp of hERG1 currents in transfected HEK 293 cells; type: cell-based; design: Inactivation ΔV0.3: unit not given here; settings: for Deactivation Δλ/λcon: deactivation time constant relative to baseline; for Activation V1/2 (mV): shift in voltage-dependence of activation; for Inactivation ΔV0.3: shift in voltage-dependence of inactivation; for Amplitude I/Icon: tail current relative to baseline
T1 construct: expressed in transfected cells; host or cells: HEK 293
Procedure: (§1) Transfected HEK cells on glass cover slips were placed in a chamber mounted on a modified stage of an inverted microscope. The chamber was superfused at a rate of 2 mL/min with a normal external solution. The extracellular solution contained (in mM) NaCl 140, KCl 5.4, CaCl2 1, MgCl2 1, HEPES 5, glucose 5.5, pH 7.4, with NaOH. Micropipettes were pulled from borosilicate glass capillary tubes on a programmable horizontal puller (Sutter Instruments, Novato, CA). Standard patch-clamp methods were used to measure the whole cell currents of hERG1 mutants expressed in HEK 293 cells using the AXOPATCH 200B amplifier (Axon Instruments). Unless otherwise indicated, tail currents were recorded when the voltage was returned to −50 mV from +50 mV. Further details on electrophysiological methods are collected in Methods S1.
(§2) Electrophysiology Protocol:
(§3) The pipette solution contained the following (at mM concentration): KCl 10, K-aspartate 110, MgCl2 5, Na2ATP 5, EGTA 10, HEPES 5, and CaCl2 1. The solution was adjusted to pH 7.2 with KOH. The extracellular solution contained the following (at mM concentration): NaCl 140, KCl 5.4, CaCl2 1, MgCl2 1, HEPES 5, and glucose 5.5. The solution was adjusted to pH 7.4 with NaOH. For IKr measurements, the whole cell configuration of the patch clamp method was used. The series resistance was less than 7
(§4) MΩ. The data were sampled at 1 kHz. The holding potential was -80 mV. The activation of hERG tail currents was induced by depolarization to a range of potentials from +50 to -100 mV in 10 mV steps for 1 second. This was followed by repolarization to -100 mV for 1 second to record the tail currents.
(§5) -100 mV, a -120 mV 1 second pre-pulse was applied to completely close the hERG channels before subsequent depolarization. All of the tail currents reported in this manuscript represent dofetilide-sensitive currents. The inactivation of hERG was measured by a previously reported triple-pulse protocol5, 6. The holding potential was -80 mV. The hERG channel was first depolarized to +50 mV for 1 second. Recovery from inactivation was achieved using a short pulse (a 10 ms hyperpolarization) to -120 mV, followed by the application of test pulses from -100 to 0 mV for 1 second in 10 mV steps.
(§6) A voltage of -100 mV was selected because it was on the flat part of the inactivation-voltage relationship. The methods employed are identical to ones previously reported. […]

[2] = biological target: T2, hERG1 E544L (Homo sapiens, UniProt Q12809, E544L); assay: Whole cell patch-clamp of hERG1 E544L mutant; type: cell-based; settings: 10 µM
T2 construct: expressed in transfected cells; host or cells: HEK 293
Procedure: as §1, §2, §3, §4, §5, §6

[3] = system: fetal mouse ventricular myocytes; assay: Action potential recordings in neonatal (day 1) / fetal mouse ventricular myocytes; type: cell-based; settings: for upstroke of the action potential, overshoot potential and excitability threshold: 20 µM
Procedure: (§7) Action potentials were recorded from neonatal (day 1) mouse ventricular myocytes as previously reported. Although IKr has little physiologic importance to the action potential of the adult rodent heart, we previously reported that IKr is the dominant repolarizing current in day 1 neonatal myocytes, with little or no IKs. Thus, these neonatal cells are well suited to assess the physiologic relevance of blockade of IKr to the action potential characteristics. In contrast, to address the possibility that compounds inadvertently interact with other channels, action potentials were recorded from adult cardiac myocytes. Myocytes on glass coverslips were placed in a chamber mounted on a modified stage of an inverted microscope.

[4] = biological target: T1, hERG1; settings: cited from earlier work
[5] = biological target: T2, hERG1 E544L; settings: ref [7]–[12]; cited from earlier work
[6] = biological target: T3, cardiac sodium current (INa) (Mus musculus, UniProt Q9JJV9); assay: Patch clamp of INa in neonatal cardiomyocytes; type: cell-based
T3 construct: endogenous in cells; host or cells: neonatal (day 1) mouse ventricular cardiomyocytes
Procedure: as §7
Figure 10 Drug effect on action potential in cardiomyocytes. Panel A. The effect of 20 µM and 3 µM Panel B. MC-II-157c on action potentials neonatal cardiomyocytes. […] In patch clamp studies, the INa was induced by depolarizations to −30 mV from holding potentials of −100 mV. The light traces are baseline and bold traces were recorded with MC-II-157c.

[7] = Conc. 2 µM, listed as MC-II-159c
[8] = Conc. 3 µM, listed as MC-II-157c
[9] = Conc. 10 µM, listed as MC-II-157c

T3 sequence (Q9JJV9 whole entry): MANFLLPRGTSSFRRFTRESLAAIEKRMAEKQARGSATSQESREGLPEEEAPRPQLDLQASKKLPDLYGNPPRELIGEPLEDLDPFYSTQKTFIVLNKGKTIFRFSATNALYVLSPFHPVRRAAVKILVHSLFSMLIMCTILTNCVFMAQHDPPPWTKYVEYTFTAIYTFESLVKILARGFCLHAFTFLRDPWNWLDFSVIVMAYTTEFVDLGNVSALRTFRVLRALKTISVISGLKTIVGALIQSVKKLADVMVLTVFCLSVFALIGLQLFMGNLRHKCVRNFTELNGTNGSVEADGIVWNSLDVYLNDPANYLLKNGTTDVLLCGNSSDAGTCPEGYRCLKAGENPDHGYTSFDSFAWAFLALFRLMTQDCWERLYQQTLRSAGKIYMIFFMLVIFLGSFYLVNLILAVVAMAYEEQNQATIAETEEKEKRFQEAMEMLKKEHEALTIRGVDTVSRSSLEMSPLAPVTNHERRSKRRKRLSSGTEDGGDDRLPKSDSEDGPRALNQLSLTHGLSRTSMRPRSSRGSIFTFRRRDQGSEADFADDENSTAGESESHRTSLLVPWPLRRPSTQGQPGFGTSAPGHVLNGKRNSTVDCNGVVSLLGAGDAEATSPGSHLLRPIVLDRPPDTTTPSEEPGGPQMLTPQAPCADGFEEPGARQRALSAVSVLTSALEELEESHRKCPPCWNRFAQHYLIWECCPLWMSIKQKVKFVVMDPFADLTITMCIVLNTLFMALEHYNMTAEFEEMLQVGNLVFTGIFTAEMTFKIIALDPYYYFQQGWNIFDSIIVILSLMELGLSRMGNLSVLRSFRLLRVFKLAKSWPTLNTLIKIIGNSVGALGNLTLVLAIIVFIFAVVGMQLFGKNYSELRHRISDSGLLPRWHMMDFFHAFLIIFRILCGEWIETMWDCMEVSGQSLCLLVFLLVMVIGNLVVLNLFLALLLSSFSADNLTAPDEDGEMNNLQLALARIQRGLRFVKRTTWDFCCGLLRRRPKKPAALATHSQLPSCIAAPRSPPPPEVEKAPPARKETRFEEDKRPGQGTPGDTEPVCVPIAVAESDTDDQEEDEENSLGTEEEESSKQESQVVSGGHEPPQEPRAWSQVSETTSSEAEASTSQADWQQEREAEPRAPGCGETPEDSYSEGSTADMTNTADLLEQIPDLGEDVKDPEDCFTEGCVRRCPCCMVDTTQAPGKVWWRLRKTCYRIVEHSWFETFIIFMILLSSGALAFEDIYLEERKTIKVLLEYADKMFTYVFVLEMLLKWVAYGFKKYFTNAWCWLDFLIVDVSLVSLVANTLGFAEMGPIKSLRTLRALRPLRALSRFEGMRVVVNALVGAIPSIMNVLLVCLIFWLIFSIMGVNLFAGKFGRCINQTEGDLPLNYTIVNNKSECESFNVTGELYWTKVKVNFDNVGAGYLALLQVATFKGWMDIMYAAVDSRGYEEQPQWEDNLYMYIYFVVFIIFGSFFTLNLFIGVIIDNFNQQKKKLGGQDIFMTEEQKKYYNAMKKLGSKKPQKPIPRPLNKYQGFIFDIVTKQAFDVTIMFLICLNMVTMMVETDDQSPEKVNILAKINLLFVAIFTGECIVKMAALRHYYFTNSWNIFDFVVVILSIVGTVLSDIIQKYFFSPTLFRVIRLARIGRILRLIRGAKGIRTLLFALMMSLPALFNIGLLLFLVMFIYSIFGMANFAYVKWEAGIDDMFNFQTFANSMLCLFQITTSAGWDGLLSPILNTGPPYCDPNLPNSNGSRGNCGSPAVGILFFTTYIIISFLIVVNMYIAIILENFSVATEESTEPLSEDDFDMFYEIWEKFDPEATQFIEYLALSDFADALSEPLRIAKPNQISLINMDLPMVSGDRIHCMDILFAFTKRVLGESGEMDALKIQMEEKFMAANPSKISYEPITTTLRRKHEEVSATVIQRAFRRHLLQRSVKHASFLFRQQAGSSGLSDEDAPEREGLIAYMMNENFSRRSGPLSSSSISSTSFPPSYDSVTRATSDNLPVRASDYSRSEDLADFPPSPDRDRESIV

SMILES: C[C@H](NCc1ccc(Br)cc1)C(=O)NC(=O)Nc1cc(C(F)(F)F)ccc1O [Compound 4]
- lower drug concentration at which effects on deactivation were still manifest [1]: ~2 µM
- Deactivation Δλ/λcon ([1]; Conc. 2 µM): 0.25±0.02
- Deactivation Δλ/λcon [1, 7]: significantly prolonged deactivation
- Activation V1/2 (mV) ([1]; Conc. 2 µM): −5±2 mV
- Inactivation ΔV0.3 ([1]; Conc. 2 µM): −0.5±0.5
- Amplitude I/Icon ([1]; Conc. 2 µM): 0.76±0.14
- Amplitude I/Icon [1, 7]: 0.76
- Inactivation ΔV0.3 ([1]; Conc. 10 µM): shifts voltage dependence to hyperpolarized potentials
- Deactivation Δλ/λcon ([1]; Conc. 20 µM): 3.1±1.6
- Activation V1/2 (mV) ([1]; Conc. 20 µM): −33±14 mV
- Inactivation ΔV0.3 ([1]; Conc. 20 µM): −4.5±1.5
- Amplitude I/Icon ([1]; Conc. 20 µM): 0.6±0.07
- Amplitude I/Icon ([1]; Conc. 20 µM, listed as MC-II-159c): 0.6
- response in amplitude of the tail current in E544L versus WT [2]: markedly diminished
- pharmacologic responses (shift in voltage-dependence of activation, slowing of deactivation) in E544L versus WT ([2]; listed as MC-II-159c): significantly and substantially less pharmacologic responses; also recorded: significantly and substantially reduced
- upstroke of the action potential, overshoot potential and excitability threshold [3]: affected the upstroke of the action potential, the overshoot potential and the excitability threshold

SMILES: O=C(Nc1cc(C(F)(F)F)ccc1O)Nc1cc(C(F)(F)F)ccc1O [NS1643]
- Deactivation Δλ/λcon ([1]; Conc. 10 µM): 1±0.4
- Activation V1/2 (mV) ([1]; Conc. 10 µM): −21±2.3 mV
- Inactivation ΔV0.3 ([1]; Conc. 10 µM): +6±0.6
- Amplitude I/Icon ([1]; Conc. 10 µM): 1±0.04
- safety factor ([1]; original safety factor, blockade versus activation): 3 fold
- pharmacologic responses (shift in voltage-dependence of activation, slowing of deactivation) in E544L versus WT [2]: exaggerated pharmacologic responses; also recorded: exaggerated response
- response in amplitude of the tail current in E544L versus WT [2]: exaggerated
- NS1643-induced increase in tail current amplitude ([4]; WT, ref [7]–[12]): 13%
- NS1643-induced slowing of deactivation ([4]; WT, ref [7]–[12]): 1.9 fold
- concentration increasing current density / tail current magnitude ([4]; ref [7]): 10 µM
- concentration producing channel blockade ([4]; ref [7]): 30 µM
- concentration that increases the magnitude of the tail current ([4]; ref [13]): 10 µM
- concentrations that pharmacologically block the channel ([4]; ref [13]): 20–30 µM
- NS1643-induced shift in the V1/2 of activation ([4]; wild type (WT), ref [7]–[12]): −18±3 mV
- NS1643-induced increase in tail current amplitude [5]: 398%
- NS1643-induced shift in the V1/2 of activation [5]: −24±3 mV
- NS1643-induced slowing of deactivation [5]: 3.5 fold

SMILES: C[C@H](NCc1ccc(C(F)(F)F)cc1)C(=O)NC(=O)Nc1cc(C(F)(F)F)ccc1O [Compound 5]
- lower drug concentration at which effects on deactivation were still manifest [1]: ~2 µM
- Deactivation Δλ/λcon ([1]; Conc. 1 µM): 0.2±0.1
- Activation V1/2 (mV) ([1]; Conc. 1 µM): −2±0.0 mV
- Inactivation ΔV0.3 ([1]; Conc. 1 µM): 1.3±0.9
- Amplitude I/Icon ([1]; Conc. 1 µM): 0.95±0.02
- Deactivation Δλ/λcon ([1]; Conc. 3 µM): 0.8±0.1
- Deactivation Δλ/λcon [1, 8]: slows deactivation; also recorded: modest slowing of deactivation
- Activation V1/2 (mV) ([1]; Conc. 3 µM): −6.5±0.5 mV
- Activation V1/2 (mV) [1, 8]: does shift voltage dependence of activation; also recorded: shifting V1/2 of activation to hyperpolarized potentials
- Inactivation ΔV0.3 ([1]; Conc. 3 µM): 1±1
- Amplitude I/Icon ([1]; Conc. 3 µM): 1.1±0.04
- Amplitude I/Icon [1, 8]: significantly increased the tail-current amplitude; also recorded: increases tail current amplitude; also recorded: modest increase in tail current amplitude
- Deactivation Δλ/λcon ([1]; Conc. 10 µM): 3.3±1.3
- Activation V1/2 (mV) ([1]; Conc. 10 µM): −14±3.6 mV
- Inactivation ΔV0.3 ([1]; Conc. 10 µM): 14.0±2.7
- Inactivation ΔV0.3 [1, 9]: shifts voltage-dependence of inactivation to depolarized potentials
- Amplitude I/Icon ([1]; Conc. 10 µM): 0.88±0.1
- Amplitude I/Icon [1, 9]: 0.88
- Deactivation Δλ/λcon ([1]; Conc. 20 µM): 3.5±0.2
- Activation V1/2 (mV) ([1]; Conc. 20 µM): −15.3±4.1 mV
- Inactivation ΔV0.3 ([1]; Conc. 20 µM): +9.3±2.0
- Amplitude I/Icon ([1]; Conc. 20 µM): 0.86±0.1
- Deactivation Δλ/λcon ([1]; Conc. 50 µM): 4.5±0.1
- Activation V1/2 (mV) ([1]; Conc. 50 µM): −27.5±3.5 mV
- Inactivation ΔV0.3 ([1]; Conc. 50 µM): 26±1
- Amplitude I/Icon ([1]; Conc. 50 µM): 0.83±0.1
- magnitude of the effects on activation and deactivation, greater than previously reported with NS1643 ([1]; relative to NS1643): 6-10 fold
- response in amplitude of the tail current in E544L versus WT [2]: markedly diminished
- pharmacologic responses (shift in voltage-dependence of activation, slowing of deactivation) in E544L versus WT ([2]; listed as MC-II-157c): significantly and substantially less pharmacologic responses; also recorded: significantly and substantially reduced
- action potential duration ([3]; 3 µM, listed as MC-II-157c): significantly shortened action potential duration
- upstroke of the action potential, overshoot potential and excitability threshold ([3]; listed as MC-II-157c): affected the upstroke of the action potential, the overshoot potential and the excitability threshold; also recorded: decreased the upstroke dV/dt of the action potential, the overshoot potential and excitability threshold
- concentrations at which INa is blocked [6]: > 20 µM
- blockade of the sodium current (INa) ([6]; 20 µM, listed as MC-II-157c): blocks a cardiac sodium channel; also recorded: substantially blocks INa
